This is an account of results in patent US20090169648A1, “COMPOSITIONS TO REDUCE BLOOD GLUCOSE LEVELS AND TREAT DIABETES” (Astrum Therapeutics Pty Ltd, priority 2006, published 2009).

In data set [1] the test system is DM patients. The following applies: cited from earlier work.
Data set [2] has as its system humans. The following applies: cited from earlier work.
Data set [3] relates to Fatty diabetic Zucker rats. The data set can be described thus: Fatty diabetic Zucker rats, 4-week diets, fasting glucose. It is filed as in vivo, rat. The following applies: diet for 4 weeks. As to the method: Fatty diabetic Zucker rats were separated into three groups to receive three diets for 4 weeks: a) 1% Mg in diet (5 times higher than control diet); b) a combination including 2 g/L of vitamin C in drinking water, 2.5% of KM in diet, 400 mg/kg of α-LA; c) Comp1 that includes 1% of Mg in diet, 2 g/L of vitamin C in drinking water, 2.5% of KM in diet, 400 mg/kg of α-LA.
No change in the level of fasting glucose level vs baseline was observed by the administration of Mg. 17% reduction of glucose vs baseline was observed by the combination of Vitamin C, KM and α-LA. 28% reduction of glucose vs baseline was observed by Comp1 (the combination of Vitamin C, KM and α-LA with Mg salt)

The subject of data set [4] is humans. The following applies: seven clinical trials; cited from earlier work.
The test system of data set [5] is timed-pregnant Sprague-Dawley rats. The following applies: rat, in vivo; cited from earlier work.
Data set [6] relates to humans. The following applies: exposure of humans; cited from earlier work.
Data set [7] concerns T2DM patients. The following applies: 200 μg twice daily, three weeks, cited from earlier work.
The test system of data set [8] is T2DM patients. The following applies: 200 μg twice daily, 12 weeks, versus placebo; cited from earlier work.

Like-named read-outs stand apart in the source and are kept apart here.

As for `O=C(O)CCCCC1CCSS1` (stereo not drawn) [α-LA, Alpha-lipoic acid], in data set [1], the “decrease of levels of peroxides” value is 34%. The “reduction of fasting glucose level” value in data set [2] (lean T2DM patients) is listed as ~15%; in data set [2] (patients with diabetic neuropathy), 18%. In addition, in data set [2] (two clinical trials), the “effect on glucose levels” value is “no effect”.

With `[Cl-].[Cl-].[Mg+2]` [Mg, Magnesium Chloride], the “reduction of fasting glucose level vs baseline” value in data set [3] was “No change”. In addition, the “effect on glucose levels” value in data set [4] is “failed to show reduced glucose levels”.

On to `CCN(CC)CCO` [diethylethanolamine], for which, in data set [5], the “reduction of body weight” value is recorded as 9.5% and the “reduction of weight gain” value is recorded as 48%.

Turning to `OCCNCCO` [diethanolamine], in data set [6], the individuals developing asthma is listed as 0.6%.

Consider Chromium picolinate [CrPic], for which the “reduction in glucose versus baseline” value in data set [7] (T2DM patients) is −21%. In addition, in data set [7], the “change in cholesterol versus baseline” value is −9.4% and the “change in triglycerides versus baseline” value is −10.5%. Also, the “glycated hemoglobin (HbA1C) after treatment” value in data set [7] (from 8.2% at baseline) is given as 7.6%. Moreover, in data set [8], the “improvement in fasting glucose” value is listed as 0.44 mM and the “improvement in post-prandial serum glucose” value is 1.97 mM.
